Laboratory results: patent publication US20060172958A1, “Phospholipid scramblase 3” (priority 2003, published 2006)

Key:
HeLa-control cells = test: TUNEL apoptosis assay with flow cytometry; assay type: cell-based; conditions: 200 nM PMA, 2 hours
Method: (§1) Apoptotic assays were performed with annexinV-PE (BD-PharMingen) per manufacturer's protocol. The TUNEL assay (terminal deoxynucleotidyltransferase-mediated dUTP-biotin nick end labeling) was performed according to the manufacturer's protocol (Roche, Switzerland).
(§2) If PLS3 is a direct downstream effector of PKC-δ in the PKC-δ-induced apoptotic pathway, then overexpression of PLS3 might enhance apoptosis induced by PKC-δ activation. HeLa-PLS3 were incubated with phorbol ester PMA, and analyzed for apoptosis with TUNEL assay and flow cytometry.

HeLa-PLS3 cells = test: TUNEL apoptosis assay with flow cytometry; assay type: cell-based; conditions: 200 nM PMA, 2 hours
Method: as §1, §2

HEK293 cells = test: UV-induced cytochrome c release, subcellular fractionation and Western blot; assay type: cell-based
Method: Subcellular fractionation was performed by differential centrifugation. In brief, […] were incubated in buffer containing 300 mM sucrose, 10 mM Tris (pH 7.5), 5 mM EDTA, 0.1% BSA and 1 mM PMSF protease inhibitor for 5 min on ice. Cells were disrupted by passage through a 25 G needle or dounced for 10 strokes, and then were centrifuged at 1000×g for 5 minutes, 10,000×g for 10 minutes, and 30,000×g for 60 minutes, for collection of intact cells/nuclei, crude mitochondria and microsomes, respectively. The final supernatants were used as cytosols. The mitochondria and the cytosolic fractions were analyzed for cytochrome c release with Western blot.
The kinase that phosphorylates PLS3 was then sought. Based on the observation that PLS1 is phosphorylated by […], we studied whether PLS3 is the mitochondrial substrate of PKC-δ. It was first reconfirmed that PKC-δ is essential for UV-induced apoptosis by blocking PKC-δ with a PKC-δ inhibitor, rottlerin, in our system. The HEK293 cells were fractionated and the isolated mitochondria and cytosols were analyzed for cytochrome c release by Western blot. This study confirmed that cytochrome c was released to cytosol after UV irradiation, and this release was inhibited by rottlerin (FIG. 20b). […]

mouse liver mitochondria = test: Cardiolipin transfer assay (NAO fluorescence); assay type: biochemical; conditions: 30 μM NAO, vs buffer or BSA control
From the text: Cardiolipin was then investigated since cardiolipin is a mitochondrion-specific phospholipid and is potentially more critical in the process of apoptosis. Because radioactive cardiolipin is not commercially available, NAO was used to quantify cardiolipin in the recipient mitochondria. NAO binds cardiolipin specifically without interference by other phospholipids with a stoichiometry of 1 to 1 or 2 to 1. To achieve maximal NAO saturation, the recipient mitochondria were permeablized and fixed with formaldehyde. A dose titration of NAO was then performed. The red fluorescence achieved a plateau when the NAO concentrations were above 20 μM as reported (Garcia Fernandez et al. 2000). The concentration of 30 μM was thus chosen to determine the total amount of cardiolipin after in vitro cardiolipin transfer assay. […]
Phospholipid transfer assay was modified from Koumanov et al. (Koumanov and Infante 1986). […] Mitochondria were then washed five times with mitochondrial preparation buffer to remove free liposomes and counted by scintillation counter for ^14C activity. For cardiolipin transfer assays, total amounts of cardiolipin were quantified by specific fluorescence with NAO dye. NAO (30 μM) was added to recipient mitochondria, and fluorescence intensity was measured at 590±35 nm by fluorescence microplate reader.

293-vector cells = test: Mitochondrial potential by Rhodamine 123 flow cytometry; assay type: cell-based; conditions: antimycin A for 6 h
Method: FIG. 14. Overexpression of mutant PLS3 reduces mitochondrial mass, potential, and cytochrome c and CL content. […] C. […] The blot was re-probed with antibodies to VDAC and tubulin for controls. […] Error bars, SDs from five independent measurements. E. Quantitative PCR analysis of mitochondrial NADH dehydrogenase in 400 ng of whole cell genomic DNA. […] The crossing points (in cycle numbers) of the three cells are indicated.

Q: What does the source list for CCCCCCCCCCCCCC(=O)O[C@@H]1[C@@H](C)[C@@]2(O)[C@@H](C=C(CO)C[C@]3(O)C(=O)C(C)=C[C@@H]23)[C@@H]2C(C)(C)[C@]12OC(C)=O [PMA]?
A: apoptosis (TUNEL) (HeLa-control cells): did not induce any apoptosis; apoptosis (TUNEL) (HeLa-PLS3 cells): shifted the curve to right

Q: Which “amount of PKC-δ translocated to mitochondria” value (HEK293 cells; UV plus rottlerin, washed mitochondria, 100 nM PMA, cytochrome c release) does the source give for CC(=O)c1c(O)c(C)c(O)c(Cc2c(O)c3c(c(C(=O)/C=C/c4ccccc4)c2O)OC(C)(C)C=C3)c1O [rottlerin] here?
A: decreased

Q: And the “cytochrome c release to cytosol after UV irradiation” value (HEK293 cells; rottlerin 10 μM, harvested 4 hours after UV)?
A: inhibited

Q: For “PLS3: Recombinant phospholipid scramblase 3 protein; purified PLS3β in transfer assay, His-tagged PLS3 in kinase assay”, which “increase of total amount of cardiolipin in recipient mitochondria” value (mouse liver mitochondria) is on record?
A: 35%

Q: How did the “mitochondrial potential (Rhodamine 123)” value (293-vector cells) turn out when antimycin A was run?
A: decrease of mitochondrial potential
